Reference: US11787854B2, “Immunological targeting of pathological tau proteins” (New York University, priority 2009, dated 2023)

Key:
[1] = system: JNPL3 P301L tangle mice; details: mouse, in vivo
[2] = system: pathological tau; experiment: PHF1 immunostaining of pathological tau in brain of actively immunized JNPL3 P301L mice; type: in vivo, mouse; details: compared to control mice receiving adjuvant only
Protocol: JNPL3 P301L mice received a subcutaneous injection of 100 μl followed by a second injection 2 weeks later and then monthly thereafter (unless otherwise indicated). Vaccination started at 2-3 months of age and continued until the animals were 8-9 months of age at which time the animals were perfused and their organs collected for analysis. The mice went through a battery of sensorimotor tests at 5-6 months and again at 8-9 months of age prior to sacrifice. Control mice received the adjuvant alone. […]
Analysis of tissue sections was quantified with a Bioquant image analysis system. […] For quantitative image analysis of immunohistochemistry, the granular layer of the dentate gyrus was initially selected which consistently contained intraneuronal tau aggregates (pretangles and tangles). […] Four to five sections were analyzed per animal.

[3] = system: homozygous JNPL3 tau P301L mice; experiment: Traverse beam test, actively immunized JNPL3 P301L mice; type: in vivo, mouse; details: at 8 months of age, vs adjuvant alone
Protocol: (§1) JNPL3 P301L mice received a subcutaneous injection of 100 μl followed by a second injection 2 weeks later and then monthly thereafter (unless otherwise indicated). Vaccination started at 2-3 months of age and continued until the animals were 8-9 months of age at which time the animals were perfused and their organs collected for analysis. The mice went through a battery of sensorimotor tests at 5-6 months and again at 8-9 months of age prior to sacrifice. Control mice received the adjuvant alone.
Traverse Beam: This task tests balance and general motor coordination and function integration. Mice were assessed by measuring their ability to traverse a graded narrow wooden beam to reach a goal box (Torres et al., “Behavioural, Histochemical and Biochemical Consequences of Selective Immunolesions in Discrete Regions of the Basal Forebrain Cholinergic System,” Neuroscience 63:95-122 (1994), which is hereby incorporated by reference in its entirety). The mice were placed on a 1.1 cm wide beam that is 50.8 cm long and suspended 30 cm above a padded surface by two identical columns. […] Mice were placed on the beam in a perpendicular orientation to habituate and were then monitored for a maximum of 60 sec. The number of foot slips each mouse had before falling or reaching the goal box were recorded for each of four successive trials. Errors are defined as footslips and were recorded numerically.

[4] = system: homozygous JNPL3 tau P301L mice; experiment: Rotarod test, actively immunized JNPL3 P301L mice; type: in vivo, mouse; details: at 5-6 months of age and at 8-9 months of age, vs adjuvant alone
Protocol: as §1
Rotarod Test: Animals were placed onto the rod (diameter 3.6 cm) apparatus to assess differences in motor coordination and balance by measuring fore- and hindlimb motor coordination and balance (Rotarod 7650 accelerating model; Ugo Basile, Biological Research Apparatus, Varese, Italy). This procedure was designed to assess motor behavior without a practice confound. The animals were habituated to the apparatus by receiving training sessions of two trials, sufficient to reach a baseline level of performance. Then, the mice were tested three additional times, with increasing speed. During habituation, the rotarod was set at 1.0 rpm, which was gradually raised every 30 sec, and was also wiped clean with 30% ethanol solution after each session. A soft foam cushion was placed beneath the apparatus to prevent potential injury from falling. […]

| Substance | antibody response against the immunogen [1] | antibody response against the tau epitope [1] | pathological tau (PHF1 immunostaining) in the brain stem [2] | pathological tau (PHF1 immunostaining) in the dentate gyrus [2] | functional impairment, traverse beam (footslips) [3] | functional impairment, rotarod test [4] |
| --- | --- | --- | --- | --- | --- | --- |
| SRT*PS*LP [Tau210-216[P-Thr212-Ser214]] | robust IgG and IgM immune response | – | – | – | – | – |
| VRT*PPKS*PS [Tau229-237[P-Thr231-Ser235]] | robust antibody (IgG) response | – | – | – | – | – |
| RENAKAKTDHGAEIVYKXPVVSGDTXPRHL [Tau379-408[Asp396, 404]] | robust antibody (IgG) response | – | – | – | – | – |
| IGS*TE [Tau260-264[P-Ser262]] | robust IgG response against the immunogen | a good portion of the antibody response is also generated against the tau epitope | reduced the levels of pathological tau | reduced the levels of pathological tau | prevented functional impairment | prevented functional impairment |
